The text below walks through data of patent US10000474B2, “Histone deacetylase inhibitors and uses thereof” (MUSC FOUNDATION FOR RESEARCH DEVELOPMENT, priority 2014, dated 2018).

Holding throughout (assay type): biochemical
Holding throughout (conditions): test concentration not given; average of triplicate

For one test, the target named is T1, Recombinant human HDAC6 (Homo sapiens, UniProt Q9UBN7).
T1 construct: purchased BPS Biosciences
T1 sequence (Q9UBN7 1-1215): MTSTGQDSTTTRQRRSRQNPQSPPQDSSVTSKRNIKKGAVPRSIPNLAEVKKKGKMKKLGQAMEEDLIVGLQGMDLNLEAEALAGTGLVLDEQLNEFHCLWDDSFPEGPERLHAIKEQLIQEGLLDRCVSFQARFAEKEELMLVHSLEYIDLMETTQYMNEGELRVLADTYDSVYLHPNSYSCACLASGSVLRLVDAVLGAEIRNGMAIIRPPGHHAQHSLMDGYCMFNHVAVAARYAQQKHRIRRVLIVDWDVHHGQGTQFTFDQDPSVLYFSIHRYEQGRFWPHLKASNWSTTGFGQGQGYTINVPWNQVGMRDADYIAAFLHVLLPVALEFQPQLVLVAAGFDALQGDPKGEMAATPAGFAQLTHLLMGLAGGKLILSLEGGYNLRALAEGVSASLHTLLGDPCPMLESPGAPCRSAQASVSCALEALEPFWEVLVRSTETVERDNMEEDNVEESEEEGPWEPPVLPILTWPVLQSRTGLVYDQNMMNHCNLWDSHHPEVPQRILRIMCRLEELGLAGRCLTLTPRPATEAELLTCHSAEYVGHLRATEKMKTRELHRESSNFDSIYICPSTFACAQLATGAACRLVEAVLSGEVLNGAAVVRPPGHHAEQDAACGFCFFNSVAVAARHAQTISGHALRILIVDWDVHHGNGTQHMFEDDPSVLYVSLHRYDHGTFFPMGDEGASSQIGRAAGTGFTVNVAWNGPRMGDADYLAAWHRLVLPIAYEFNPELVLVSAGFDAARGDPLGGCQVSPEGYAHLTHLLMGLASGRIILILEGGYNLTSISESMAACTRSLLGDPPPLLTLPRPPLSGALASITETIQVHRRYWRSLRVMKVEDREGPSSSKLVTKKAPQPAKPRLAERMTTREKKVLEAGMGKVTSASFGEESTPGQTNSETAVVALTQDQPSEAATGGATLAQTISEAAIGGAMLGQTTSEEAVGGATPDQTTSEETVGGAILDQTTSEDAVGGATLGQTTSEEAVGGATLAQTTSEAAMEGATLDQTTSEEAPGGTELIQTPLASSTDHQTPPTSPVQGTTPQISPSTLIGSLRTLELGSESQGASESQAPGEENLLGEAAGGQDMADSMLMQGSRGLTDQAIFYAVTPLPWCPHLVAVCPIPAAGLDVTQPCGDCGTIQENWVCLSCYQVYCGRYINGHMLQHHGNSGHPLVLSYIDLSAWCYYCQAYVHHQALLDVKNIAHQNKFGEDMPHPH
The test is described as follows: HDAC inhibitory assay, HDAC6 (Boc-Lys(Ac)-AMC substrate). The protocol: (§1) The compounds of Examples 1-12 and 14-16 were evaluated for their ability to act as inhibitors of human HDAC. The compound of Example 13 was not tested. Recombinant human HDAC1, HDAC2, HDAC3/NcoR2, HDAC5, HDAC6, HDAC8, HDAC9, HDAC10 and HDAC11 were purchased from BPS Biosciences. Recombinant human HDAC4 and HDAC7 were purchased from Millipore. The substrate Boc-Lys(Ac)-AMC and Boc-Lys(Tfa)-AMC were purchased from Bachem. The substrate Ac-RHK(Ac)K(Ac)-AMC was purchased from Enzo Life Sciences. Due to the different specific activities of each isoform, different amount of enzyme was used in each isoform screening assay. In these assays, trichostatin A (TSA), suberanilohydroxamic acid and diphenylacetohydroxamic acid (DPAHA) were employed as positive controls. All determinations were carried out in triplicate, and reported values were the average of these determinations, which in no case varied by more than 5%.
(§2) Then 25 μl of the Boc-Lys(Ac)-AMC substrate (50 μM final concentration) was added and incubated at 37° C. for 30-60 min, and followed by adding 50 μl of developer (1 mg/ml trypsin and 1 μM TSA). The last step was reading the samples in a SpectraMax M5 plate reader (Molecular Devices) at an excitation wavelength of 360 nm and an emission wavelength of 460 nm.

The next test addresses T2, Recombinant human HDAC10 (Homo sapiens, UniProt Q969S8).
T2 construct: purchased BPS Biosciences
T2 sequence (Q969S8 1-669): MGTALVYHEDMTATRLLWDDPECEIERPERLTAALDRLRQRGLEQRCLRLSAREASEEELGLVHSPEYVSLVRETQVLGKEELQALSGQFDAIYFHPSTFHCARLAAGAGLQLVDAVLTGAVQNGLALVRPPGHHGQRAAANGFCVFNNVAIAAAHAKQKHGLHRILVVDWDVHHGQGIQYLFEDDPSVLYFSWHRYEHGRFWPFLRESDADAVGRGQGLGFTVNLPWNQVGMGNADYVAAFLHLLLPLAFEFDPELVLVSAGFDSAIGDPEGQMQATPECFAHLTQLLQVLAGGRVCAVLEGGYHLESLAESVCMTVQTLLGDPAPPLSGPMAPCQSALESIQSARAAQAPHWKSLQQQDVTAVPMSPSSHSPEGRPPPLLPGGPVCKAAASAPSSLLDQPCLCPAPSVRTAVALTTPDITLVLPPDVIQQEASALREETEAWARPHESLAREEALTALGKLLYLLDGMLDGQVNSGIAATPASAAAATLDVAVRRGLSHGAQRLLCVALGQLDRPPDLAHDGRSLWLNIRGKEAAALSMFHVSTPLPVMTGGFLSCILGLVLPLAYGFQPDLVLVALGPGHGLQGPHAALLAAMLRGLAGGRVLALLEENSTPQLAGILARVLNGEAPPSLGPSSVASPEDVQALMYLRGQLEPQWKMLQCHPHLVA
The experiment in a line: HDAC inhibitory assay, HDAC10 (Boc-Lys(Ac)-AMC substrate). The protocol:
as §1, §2

Test [1] addresses T3, Recombinant human HDAC3/NcoR2 (Homo sapiens, UniProt O15379).
T3 construct: purchased BPS Biosciences
The experiment in a line: HDAC inhibitory assay, HDAC3 (Boc-Lys(Ac)-AMC substrate). The protocol:
as §1, §2

The target of the next test is T4, Recombinant human HDAC5 (Homo sapiens, UniProt Q9UQL6).
T4 construct: purchased BPS Biosciences
The experiment in a line: HDAC inhibitory assay, HDAC5 (Boc-Lys(Tfa)-AMC substrate). As for the experimental part:
as §1
For evaluating the inhibition of class IIa HDACs (HDAC4, HDAC5, HDAC7 and HDAC9) and class IV HDAC (HDAC11), 10 μl of test samples were first incubated with 1 ng HDAC4 (specific activity=15400 pmol/min/μg), 5 ng HDAC5 (specific activity=2521 pmol/min/μg), 1 ng HDAC7 (specific activity=26340 pmol/min/μg), 5 ng HDAC9 (specific activity=3000 pmol/min/μg), and 500 ng HDAC11 (specific activity=1.8 pmol/min/μg) respectively. Then 25 μl of the Boc-Lys(Tfa)-AMC substrate (50 μM final concentration) was added and incubated at 37° C. for 30-60 min, and followed by adding 50 μl of developer. The last step was to read the samples in a SpectraMax M5 plate reader (Molecular Devices) at an excitation wavelength of 360 nm and an emission wavelength of 460 nm.

Counter-ions that a name gives are not always drawn.

T4 sequence (Q9UQL6 whole entry): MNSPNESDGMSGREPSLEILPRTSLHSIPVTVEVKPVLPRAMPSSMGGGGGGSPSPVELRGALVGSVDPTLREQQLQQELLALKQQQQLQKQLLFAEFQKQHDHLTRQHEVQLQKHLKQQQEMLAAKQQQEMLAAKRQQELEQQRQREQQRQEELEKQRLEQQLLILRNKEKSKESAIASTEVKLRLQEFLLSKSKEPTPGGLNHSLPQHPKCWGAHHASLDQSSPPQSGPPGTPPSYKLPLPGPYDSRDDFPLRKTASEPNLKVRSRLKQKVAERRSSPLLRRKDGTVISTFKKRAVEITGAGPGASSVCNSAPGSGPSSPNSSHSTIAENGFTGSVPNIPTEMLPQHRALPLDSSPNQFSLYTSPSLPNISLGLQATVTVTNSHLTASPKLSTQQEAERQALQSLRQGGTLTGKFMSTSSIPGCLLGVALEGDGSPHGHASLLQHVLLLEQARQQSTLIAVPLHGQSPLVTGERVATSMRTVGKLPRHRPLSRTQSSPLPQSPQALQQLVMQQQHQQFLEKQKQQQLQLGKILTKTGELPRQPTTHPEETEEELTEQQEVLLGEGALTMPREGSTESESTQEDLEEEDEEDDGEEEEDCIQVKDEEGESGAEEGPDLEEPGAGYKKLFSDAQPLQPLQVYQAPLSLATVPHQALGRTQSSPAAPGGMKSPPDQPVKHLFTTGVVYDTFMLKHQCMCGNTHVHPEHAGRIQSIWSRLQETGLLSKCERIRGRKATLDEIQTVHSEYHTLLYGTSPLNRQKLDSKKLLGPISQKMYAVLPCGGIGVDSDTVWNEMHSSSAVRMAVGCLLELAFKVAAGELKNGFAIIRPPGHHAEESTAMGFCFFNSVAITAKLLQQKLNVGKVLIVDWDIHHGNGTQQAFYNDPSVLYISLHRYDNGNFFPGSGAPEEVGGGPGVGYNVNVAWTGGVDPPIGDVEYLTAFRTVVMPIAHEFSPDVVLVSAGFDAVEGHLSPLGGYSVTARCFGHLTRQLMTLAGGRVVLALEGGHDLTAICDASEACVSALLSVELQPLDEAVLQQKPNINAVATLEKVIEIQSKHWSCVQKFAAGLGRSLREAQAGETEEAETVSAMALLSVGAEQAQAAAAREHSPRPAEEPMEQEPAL
T3 sequence (O15379 whole entry): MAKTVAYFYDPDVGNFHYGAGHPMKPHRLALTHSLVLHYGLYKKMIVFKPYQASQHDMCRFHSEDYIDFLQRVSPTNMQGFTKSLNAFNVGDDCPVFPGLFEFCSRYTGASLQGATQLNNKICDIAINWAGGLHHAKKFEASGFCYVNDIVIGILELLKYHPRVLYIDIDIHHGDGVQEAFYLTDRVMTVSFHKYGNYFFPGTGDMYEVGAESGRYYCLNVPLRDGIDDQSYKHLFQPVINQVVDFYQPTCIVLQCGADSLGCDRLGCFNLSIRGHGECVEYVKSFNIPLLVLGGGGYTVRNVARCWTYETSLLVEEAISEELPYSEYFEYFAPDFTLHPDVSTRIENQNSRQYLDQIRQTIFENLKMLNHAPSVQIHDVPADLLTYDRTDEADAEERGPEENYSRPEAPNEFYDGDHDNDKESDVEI
T3 sequence (Q9Y618 395-489 partner limits assumed): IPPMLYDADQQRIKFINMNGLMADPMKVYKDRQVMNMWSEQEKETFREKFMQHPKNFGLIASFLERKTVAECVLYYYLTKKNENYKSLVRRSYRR

As to `O=C(NCCCCNC(=O)C(c1ccccc1)c1ccccc1)c1coc(-c2ccccc2O)n1` [Example 10, N-(4-(2,2-Diphenylacetamido)butyl)-2-(2-hydroxyphenyl)oxazole-4-carboxamide], the “HDAC 6 inhibitory activity” value on Recombinant human HDAC6 amounted to 26.7%. The “HDAC 10 inhibitory activity” value at Recombinant human HDAC10 stood at 56.5%. The “HDAC 3 inhibitory activity” value in test [1] was 4.0%. Besides, at Recombinant human HDAC5, the “HDAC 5 inhibitory activity” value is 1.4%.

In the case of `O=C(NCCCCNCCC(c1ccccc1)c1ccccc1)c1coc(-c2ccccc2O)n1` [Example 12, N-(4-((3,3-Diphenylpropyl)amino)butyl)-2-(2-hydroxyphenyl)oxazole-4-carboxamide hydrochloride], the “HDAC 6 inhibitory activity” value on Recombinant human HDAC6 was 28.9%. For the same compound, the “HDAC 10 inhibitory activity” value at Recombinant human HDAC10 amounted to 26.2%. Besides, the “HDAC 3 inhibitory activity” value in test [1] came to 18.1%. In addition, the “HDAC 5 inhibitory activity” value on Recombinant human HDAC5 is recorded as 6.9%.

As to `O=C(CNC(=O)c1coc(-c2ccccc2O)n1)Nc1ccccc1` [Example 16, 2-(2-Hydroxyphenyl)-N-(2-oxo-2-(phenylamino)ethyl)oxazole-4-carboxamide], the “HDAC 6 inhibitory activity” value at Recombinant human HDAC6 is 59.9%. On Recombinant human HDAC10, the “HDAC 10 inhibitory activity” value was found to be 54.7%. Besides, the “HDAC 3 inhibitory activity” value in test [1] turned out to be 36.9%. At Recombinant human HDAC5, the “HDAC 5 inhibitory activity” value was found to be 12.5%.

With `O=C(NCCC(c1ccccc1)c1ccccc1)c1coc(-c2ccccc2O)n1` [Example 4, N-(3,3-Diphenylpropyl)-2-(2-hydroxyphenyl)oxazole-4-carboxamide], the “HDAC 6 inhibitory activity” value at Recombinant human HDAC6 was 48.1%. On Recombinant human HDAC10, the “HDAC 10 inhibitory activity” value was found to be 69.8%. The “HDAC 3 inhibitory activity” value in test [1] is 37.5%. The “HDAC 5 inhibitory activity” value on Recombinant human HDAC5 is reported as 11.3%.

Take `O=C(NCCc1c[nH]c2ccccc12)c1coc(-c2ccccc2O)n1` [Example 8, N-(2-(1H-Indol-3-yl)ethyl)-2-(2-hydroxyphenyl)oxazole-4-carboxamide]: the “HDAC 6 inhibitory activity” value at Recombinant human HDAC6 stood at 30.8%. On Recombinant human HDAC10, the “HDAC 10 inhibitory activity” value is 44.8%. Besides, in test [1], the “HDAC 3 inhibitory activity” value is on record as 18.9%. The “HDAC 5 inhibitory activity” value on Recombinant human HDAC5 was 0%.

Consider `O=C(NCc1ccc(-c2ccccc2)cc1)c1coc(-c2ccccc2O)n1` [Example 6, N-([1,1′-Biphenyl]-4-ylmethyl)-2-(2-hydroxyphenyl)oxazole-4-carboxamide], for which, at Recombinant human HDAC6, the “HDAC 6 inhibitory activity” value stood at 47.8%. The “HDAC 10 inhibitory activity” value on Recombinant human HDAC10 came to 48.7%. Also, the “HDAC 3 inhibitory activity” value in test [1] is 40.1%. Also, the “HDAC 5 inhibitory activity” value on Recombinant human HDAC5 came to 9.2%.

Consider `O=C(NCCCCN1C(=O)c2ccccc2C1=O)c1coc(-c2ccccc2O)n1` [Example 9, N-(4-(1,3-Dioxoisoindolin-2-yl)butyl)-2-(2-hydroxyphenyl)oxazole-4-carboxamide], for which the “HDAC 6 inhibitory activity” value on Recombinant human HDAC6 came out at 46.0%. Besides, the “HDAC 10 inhibitory activity” value on Recombinant human HDAC10 came out at 32.1%. Also, in test [1], the “HDAC 3 inhibitory activity” value came to 11.0%. The “HDAC 5 inhibitory activity” value at Recombinant human HDAC5 was 10.3%.

Regarding `O=C(O)c1ccc(CNC(=O)c2coc(-c3ccccc3O)n2)cc1` [Example 14, 4-((2-(2-Hydroxyphenyl)oxazole-4-carboxamido)methyl)benzoic acid], on Recombinant human HDAC6, the “HDAC 6 inhibitory activity” value was determined as 60.3%. Further, at Recombinant human HDAC10, the “HDAC 10 inhibitory activity” value came to 47.2%. In test [1], the “HDAC 3 inhibitory activity” value was determined as 39.7%. At Recombinant human HDAC5, the “HDAC 5 inhibitory activity” value was 12.6%.

Take `O=C(NCCCCNC(=S)NCCC(c1ccccc1)c1ccccc1)c1coc(-c2ccccc2O)n1` [Example 11, N-(4-(3-(3,3-Diphenylpropyl)thioureido)butyl)-2-(2-hydroxyphenyl)oxazole-4-carboxamide]: on Recombinant human HDAC6, the “HDAC 6 inhibitory activity” value is listed as 50.2%. Moreover, on Recombinant human HDAC10, the “HDAC 10 inhibitory activity” value was determined as 91.2%. For the same compound, in test [1], the “HDAC 3 inhibitory activity” value was found to be 3.7%. Besides, the “HDAC 5 inhibitory activity” value on Recombinant human HDAC5 is reported as 43.5%.

Take `O=C(Nc1ccc(-c2ccccc2)cc1)c1coc(-c2ccccc2O)n1` [Example 5, N-([1,1′-Biphenyl]-4-yl)-2-(2-hydroxyphenyl)oxazole-4-carboxamide]: the “HDAC 6 inhibitory activity” value on Recombinant human HDAC6 was found to be 45.6%. The “HDAC 10 inhibitory activity” value on Recombinant human HDAC10 is given as 58.6%. Moreover, in test [1], the “HDAC 3 inhibitory activity” value was determined as 30.2%. Also, the “HDAC 5 inhibitory activity” value on Recombinant human HDAC5 amounted to 0%.

As for `O=C(Nc1ccccc1)c1coc(-c2ccccc2O)n1` [Example 1, 2-(2-Hydroxyphenyl)-N-phenyloxazole-4-carboxamide], on Recombinant human HDAC6, the “HDAC 6 inhibitory activity” value came to 50.3%. The “HDAC 10 inhibitory activity” value at Recombinant human HDAC10 was determined as 48.8%. In addition, the “HDAC 3 inhibitory activity” value in test [1] was determined as 22.5%. The “HDAC 5 inhibitory activity” value on Recombinant human HDAC5 is reported as 9.3%.

For `O=C(NC(c1ccccc1)c1ccccc1)c1coc(-c2ccccc2O)n1` [Example 2, N-Benzhydryl-2-(2-hydroxyphenyl)oxazole-4-carboxamide], the “HDAC 6 inhibitory activity” value on Recombinant human HDAC6 amounted to 61.6%. The “HDAC 10 inhibitory activity” value on Recombinant human HDAC10 was determined as 47.1%. For the same compound, the “HDAC 3 inhibitory activity” value in test [1] is given as 37.8%. Further, at Recombinant human HDAC5, the “HDAC 5 inhibitory activity” value is 14.9%.

Consider `O=C(Nc1ccccc1)c1ccc(CNC(=O)c2coc(-c3ccccc3O)n2)cc1` [Example 15, 2-(2-Hydroxyphenyl)-N-(4-(phenylcarbamoyl)benzyl)oxazole-4-carboxamide], for which, at Recombinant human HDAC6, the “HDAC 6 inhibitory activity” value was 30.8%. In addition, the “HDAC 10 inhibitory activity” value on Recombinant human HDAC10 is listed as 56.3%. Further, in test [1], the “HDAC 3 inhibitory activity” value was 15.8%. The “HDAC 5 inhibitory activity” value at Recombinant human HDAC5 is listed as 0%.
